Key:
Type in all cases: in vivo
person with glioblastoma = assay: Working Example XI: patient with glioblastoma; details: oral capsule: 6 mg auranofin and 50 mg isosorbide dinitrate, or 6 mg auranofin and 150 mg/m^2 BCNU, or 2.5 mg auranofin and 2 gm L-BSO every 6 hours
Experimental: A person with glioblastoma is given orally a capsule containing 6 mg auranofin and 50 mg isosorbide dinitrate or 6 mg auranofin and 150 mg/m^2 BCNU or 2.5 mg auranofin and 2 gm L-BSO given every 6 hours. Regression in the cancer occurs.

person with septic shock = assay: Working Example IX: patient with septic shock; details: combination: gene therapy for TrxIP and 15 mg/kg intravenous L-NMMA (2 mg/kg IV TID)
Experimental: A person with septic shock is given gene therapy for TrxIP and 15 mg/kg intravenous L-NMMA (2 mg/kg IV TID).

[1] = tested on: person with Parkinson's disease; assay: Working Example III: patient with Parkinson's disease; details: combination: orally 300 mg N-acetylcysteine and 0.3 mg aptamer directed at Parkin by injection into spinal fluid, 30 days
Experimental: A person with Parkinson's disease is given orally 300 mg N-acetylcysteine and 0.3 mg dose by injection into spinal fluid (range may be 10 μg-2 mg of body weight) of aptamer directed at Parkin for 30 days. Movement improves.

person with Alzheimer's = assay: Working Example IV: patient with Alzheimer's; details: combination: NAC 300 mg/day, ascorbate 1 gm/day and minocycline 100 mg TID
Experimental: A person with Alzheimer's is then started on combination of NAC (300 mg/day), ascorbate 1 gm/day and minocycline 100 mg TID and memory improves.

[2] = tested on: person with rhematoid arthritis; assay: Working Example VII: patient with rheumatoid arthritis; details: combination: deprenyl 10 mg plus ascorbate 1 gm plus ISDN 5 mg PO TID or plus cysteine or NaHS (final concentration in blood 10 μM-1 mM)
Experimental: A person with rhematoid arthritis is administered deprenyl 10 mg plus ascorbate 1 gm plus ISDN 5 mg PO TID or plus cysteine or NaHS (final concentration in blood of 10 μM-1 mM). Progression of the disease slows.

65 year with Alzheimers = assay: Working Example VI: patient with Alzheimers; details: combination: deprenyl 15 mg and S-nitrosoglutathione 10 mg po TID
Experimental: A 65 year with Alzheimers is administered deprenyl 15 mg and S-nitrosoglutathione 10 mg po TID. Blood pressure is unaltered but memory improves.

[3] = tested on: person with large cell lymphoma disease; assay: Working Example I: patient with large cell lymphoma given auranofin plus isosorbide dinitrate; details: combination: 6 mg auranofin and 50 mg isosorbide dinitrate by mouth once a day for a month; patient not responding to treatment
Experimental: A person with large cell lymphoma disease who was not responding to treatment was given by mouth 6 mg auranofin and 50 mg isosorbide dinitrate once a day for a month. Tumor burden decreases as determined by CAT scan.

with muscular dystrophy = assay: Working Example V: patient with muscular dystrophy; details: combination: deprenyl 10 mg/day plus isosorbide dinitrate (ISDN) 10 mg/day
Experimental: A person with muscular dystrophy is given deprenyl 10 mg/day plus isosorbide dinitrate (ISDN) 10 mg/day and weakness improves.

[4] = tested on: person with central core disease, malignant hyperthermia (MH); assay: Working Example VIII: patient with central core disease and malignant hyperthermia; details: combination: deprenyl 10 mg and ISDN 5 mg po tid
Experimental: A person with central core disease undergoes operation for pancreatic cancer and course complicated by malignant hyperthermia (MH). The patient is administered deprenyl 10 mg and ISDN 5 mg po tid with acute relief of MH and improvement in muscle function over time.

[5] = tested on: person with recurrent restenosis; assay: Working Example II: patient with recurrent restenosis given arsenic trioxide plus nitrate; details: combination: 0.15 mg/kg/day IV arsenic trioxide and either 60 mg isosorbide mononitrate per day or nitroglycerin patch 1-2 inches up to 4 times a day; after one month
Experimental: A person with recurrent restenosis is give 0.15 mg/kg/day IV arsenic trioxide and either 60 mg isosorbide mononitrate per day or nitroglycerin patch of 1-2 inches up to 4 times a day.

[6] = tested on: person with pancreatic cancer; assay: Working Example X: patient with pancreatic cancer; details: combination: gene therapy for TrxIP and 10 gms sodium ascorbate by infusion per day
Excerpt: A person with pancreatic cancer is given gene therapy for TrxIP and by infusion per day 10 gms of sodium ascorbate. The cancer regresses.

O=NN(CCCl)C(=O)NCCCl [BCNU, carmustine]
Regression in the cancer (person with glioblastoma): Regression

CCCCS(=N)(=O)CCC(N)C(=O)O [L-BSO, L-buthionine-SR-sulfoximine]
Regression in the cancer (person with glioblastoma): Regression

CC(=O)O.CNC(=N)NCCC[C@H](N)C(=O)O [L-NMMA, Ng-monomethyl-L-arginine, monoacetate salt]
Blood pressure (person with septic shock): increases and stabilizes

CC(=O)N[C@@H](CS)C(=O)O [N-acetylcysteine]
Movement [1]: improves | memory (person with Alzheimer's): improves

[Na+].[SH-] [NaHS]
Progression of the disease [2]: slows

N[C@@H](CCC(=O)N[C@@H](CSN=O)C(=O)NCC(=O)O)C(=O)O [S-nitrosoglutathione]
memory (65 year with Alzheimers): improves

CC(=O)OC[C@H]1O[C@@H]([S-])[C@H](OC(C)=O)[C@@H](OC(C)=O)[C@@H]1OC(C)=O.CCP(CC)CC.[Au+] [auranofin]
Tumor burden as determined by CAT scan [3]: decreases | Regression in the cancer (person with glioblastoma): Regression

N[C@@H](CS)C(=O)O [cysteine]
Progression of the disease [2]: slows

C#CCN(C)[C@H](C)Cc1ccccc1 [deprenyl]
weakness (with muscular dystrophy): improves | muscle function over time [4]: improvement | relief of MH (malignant hyperthermia) [4]: acute relief | Blood pressure (65 year with Alzheimers): unaltered | memory (65 year with Alzheimers): improves | Progression of the disease [2]: slows

O=[N+]([O-])O[C@H]1CO[C@H]2[C@@H]1OC[C@H]2O[N+](=O)[O-] [isosorbide dinitrate]
weakness (with muscular dystrophy): improves | muscle function over time [4]: improvement | relief of MH (malignant hyperthermia) [4]: acute relief | Tumor burden as determined by CAT scan [3]: decreases | Regression in the cancer (person with glioblastoma): Regression | Progression of the disease [2]: slows

O=[N+]([O-])O[C@@H]1CO[C@H]2[C@@H]1OC[C@@H]2O [isosorbide mononitrate]
disease (restenosis) [5]: abates | incidence of thrombotic complication [5]: disappears | restenosis recurrence [5]: does not reoccur

O=[N+]([O-])OCC(CO[N+](=O)[O-])O[N+](=O)[O-] [nitroglycerin]
disease (restenosis) [5]: abates | incidence of thrombotic complication [5]: disappears | restenosis recurrence [5]: does not reoccur

O=C1O[C@H]([C@@H](O)CO)C([O-])=C1O.[Na+] [sodium ascorbate]
cancer regression [6]: regresses

arsenic trioxide
disease (restenosis) [5]: abates | incidence of thrombotic complication [5]: disappears | restenosis recurrence [5]: does not reoccur
